Results taken from US20240158446A1, “CYCLIC COMPOUND HAVING SELECTIVE INHIBITORY ACTION ON KRAS OVER HRAS AND NRAS” (CHUGAI SEIYAKU KABUSHIKI KAISHA, priority 2021, published 2024).
Like-named read-outs stand apart in the source and are kept apart here. *1 amine or outer side, *2 acyl side, *3 side chain or, on linkers, in order; H or OH if unused. Where a SMILES comes first, the peptide text is derived from it. Bridges are numbered along the chain shown (N, C = ends). [ ]: non-standard residue; d: D form. The star is where a group is joined. hPhe(3,5-F2-4-CF3) = N[C@@H](CCc1cc(F)c(C(F)(F)F)c(F)c1)C(=O)O; X39 = CC(C)CCN([C@@H](Cc1ccc(C(F)(F)F)cc1)C(=O)[*:2])[*:1]; hPhe(3-Cl-4-CF3) = N[C@@H](CCc1ccc(C(F)(F)F)c(Cl)c1)C(=O)O; NPrPhe(4-CF3) = CCCN[C@@H](Cc1ccc(C(F)(F)F)cc1)C(=O)O; NMeGly(cPent) = CN[C@H](C(=O)O)C1CCCC1; NMeD = CN[C@@H](CC(=O)O)C(=O)O; NMeL = CN[C@@H](CC(C)C)C(=O)O; αMeL = CC(C)C[C@](C)(N)C(=O)O; N(Me)CH2CH2OMe = COCCN(C)*; Morpholide = C1CN(*)CCO1; NMeA = CN[C@@H](C)C(=O)O; Ac5c = NC1(C(=O)O)CCCC1; Aze = O=C(O)[C@@H]1CCN1; X24 = CC1(C)CCN(*)C1; Sar = CNCC(=O)O

Legend:
[1] = biological target: GDP-bound NRAS wild-type protein (Homo sapiens, UniProt P01111); test: Binding to NRAS by surface plasmon resonance (SPR), Single Cycle Kinetics; settings: SPR; for NRAS/KRAS (ratio of KD value for NRAS to KD value for KRAS) / NRAS/KRAS (ratio of KD value with respect to NRAS to KD value with respect to KRAS): GDP-bound NRAS wild-type protein vs GDP-bound KRAS wild-type protein
[2] = biological target: GDP-bound KRAS wild-type protein (Homo sapiens, UniProt P01116); test: Binding to KRAS by surface plasmon resonance (SPR), Single Cycle Kinetics; settings: GDP-bound KRAS wild-type protein, read-out: KRAS KD
[3] = biological target: GDP-bound HRAS wild-type protein (Homo sapiens, UniProt P01112); test: Binding to HRAS by surface plasmon resonance (SPR), Single Cycle Kinetics; settings: SPR; for HRAS/KRAS (ratio of KD value for HRAS to KD value for KRAS) / HRAS/KRAS (ratio of KD value with respect to HRAS to KD value with respect to KRAS): GDP-bound HRAS wild-type protein vs GDP-bound KRAS wild-type protein
[4] = SPR, Single Cycle Kinetics, 1:1 binding model
[5] = SPR Single Cycle Kinetics, 1:1 binding model

Sequence of GDP-bound KRAS wild-type protein (P01116 whole entry): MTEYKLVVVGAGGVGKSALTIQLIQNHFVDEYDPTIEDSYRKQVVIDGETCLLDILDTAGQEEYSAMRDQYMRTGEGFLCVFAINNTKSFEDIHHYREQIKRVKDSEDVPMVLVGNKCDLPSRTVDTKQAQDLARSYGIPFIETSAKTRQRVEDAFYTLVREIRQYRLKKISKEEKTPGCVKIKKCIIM
Sequence of GDP-bound NRAS wild-type protein (P01111 whole entry): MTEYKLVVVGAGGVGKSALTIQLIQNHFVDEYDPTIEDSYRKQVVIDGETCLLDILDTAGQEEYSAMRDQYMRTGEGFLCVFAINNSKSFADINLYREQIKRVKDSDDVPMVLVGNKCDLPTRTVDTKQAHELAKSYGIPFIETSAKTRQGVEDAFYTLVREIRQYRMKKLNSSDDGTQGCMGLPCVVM
Sequence of GDP-bound HRAS wild-type protein (P01112 whole entry): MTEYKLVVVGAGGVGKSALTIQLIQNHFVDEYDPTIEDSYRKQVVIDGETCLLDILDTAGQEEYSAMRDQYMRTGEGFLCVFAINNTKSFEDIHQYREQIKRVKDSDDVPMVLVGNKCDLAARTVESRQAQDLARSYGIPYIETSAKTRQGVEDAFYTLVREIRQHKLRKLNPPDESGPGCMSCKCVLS

Row | Structure (SMILES) | NRAS/KRAS (ratio of KD value for NRAS to KD value for KRAS) [1] | HRAS/KRAS (ratio of KD value for HRAS to KD value for KRAS) [3] | NRAS/KRAS (ratio of KD value for NRAS to KD value for KRAS) ([1]; KD ratio class) | Kd [2, 4] [nM] | HRAS/KRAS (ratio of KD value for HRAS to KD value for KRAS) ([3]; KD ratio class) | Kd [2, 5] [nM] | also measured
1 | CCO[C@@H]1C[C@H]2C(=O)NC3(CC(C)(C)C3)C(=O)N(C)[C@@H](C(CC)CC)C(=O)N(C)[C@H](C(=O)N(C)C)CC(=O)N(C)[C@@H](CC(C)C)C(=O)N[C@@H]([C@@H](C)CC)C(=O)N(C)CC(=O)N(C)[C@H]3C/C=C\CCN(C3=O)[C@@H](Cc3ccc(C(F)(F)F)cc3)C(=O)N(C)CC(=O)N[C@@H](CCc3ccc(C(F)(F)F)c(Cl)c3)C(=O)N2C1 [PP2132] | AA (a compound having 20 or more is denoted as AA) | A (a compound having 10 or more and less than 20 is denoted as A) | – | – | – | – | Kd ([2]; SPR, Single Cycle Kinetics): 0.27 nM
2 | CCO[C@@H]1C[C@H]2C(=O)NC3(CC(C)(C)C3)C(=O)N(C)[C@@H](C3CCCC3)C(=O)N(C)[C@H](C(=O)N(C)CC)CC(=O)N(C)[C@H]3CCC/C=C/c4ccc(cc4)C[C@@H](C(=O)N(C)CC(=O)N[C@@H](CCc4cc(F)c(C(F)(F)F)c(F)c4)C(=O)N2C1)N1CC/C=C\C[C@@H](C1=O)N(C)C(=O)CN(C)C(=O)[C@H]([C@@H](C)CC)NC3=O [PP1835] | – | – | – | – | – | – | NRAS/KRAS (KD ratio) ([1]; ratio of KD for GDP-bound NRAS wild-type protein to KD for KRAS): A (a compound having 10 or more and less than 20 is denoted as A); Kd ([2]; SPR, Single Cycle Kinetics): 0.051 nM; HRAS/KRAS (KD ratio) ([3]; ratio of KD for GDP-bound HRAS wild-type protein to KD for KRAS): B (a compound having 3 or more and less than 10 is denoted as B)
3 | CCC[C@H]1C(=O)N[C@@H]([C@@H](C)CC)C(=O)N(C)CC(=O)N(C)[C@H]2C/C=C\CCN(C2=O)[C@@H](Cc2ccc(C(F)(F)F)cc2)C(=O)N(C)CC(=O)N[C@@H](CCc2cc(F)c(C(F)(F)F)c(F)c2)C(=O)N2C[C@H](OCC)C[C@H]2C(=O)NC2(CCC2)C(=O)N(C)[C@@H](C2CCCC2)C(=O)N(C)[C@H](C(=O)N(C)CC)CC(=O)N1C [PP1304, (2S,8S,12R,14S,20S,23S,27S,30S,36S,38Z)-20-cyclopentyl-8-[2-[3,5-difluoro-4-(trifluoromethyl)phenyl]ethyl]-12-ethoxy-N-ethyl-N,4,19,22,26,32,35-heptamethyl-30-[(1S)-1-methylpropyl]-3,6,9,15,18,21,25,28,31,34,42-undecaoxo-27-propyl-2-[[4-(trifluoromethyl)phenyl]methyl]spiro[1,4,7,10,16,19,22,26,29,32,35-undecazatricyclo[34.5.1.0^10,14]dotetracont-38-ene-17,1′-cyclobutane]-23-carboxamide] | – | – | A (a compound having 10 or more and less than 20 is denoted as A) | 0.07 | A (a compound having 10 or more and less than 20 is denoted as A) | – | –
4 | CC[C@H](C)[C@@H]1NC(=O)[C@H](CC2CC2)N(C)C(=O)C[C@@H](C(=O)N2CCCC2)N(C)C(=O)[C@H](C2CCCC2)N(C)C(=O)C2(CCCC2)NC(=O)[C@@H]2C[C@@H](C(F)(F)F)CN2C(=O)[C@H](CCc2cc(F)c(C(F)(F)F)c(F)c2)NC(=O)CN(C)C(=O)[C@H](Cc2ccc(C(F)(F)F)cc2)N2CC/C=C\C[C@@H](C2=O)N(C)C(=O)CN(C)C1=O [PP1506] | – | – | AA (a compound having 20 or more is denoted as AA) | 0.34 | A (a compound having 10 or more and less than 20 is denoted as A) | – | –
5 | CCO[C@@H]1C[C@H]2C(=O)NC3(CCC3)C(=O)N(C)[C@@H](C(CC)CC)C(=O)N(C)[C@H](C(=O)N(C)CCOC)CC(=O)N(C)[C@@H](CC)C(=O)N[C@@H]([C@@H](C)CC)C(=O)N(C)CC(=O)N(C)[C@H]3C/C=C\CCN(C3=O)[C@@H](Cc3ccc(C(F)(F)F)cc3)C(=O)N(C)CC(=O)N[C@@H](CCc3cc(F)c(C(F)(F)F)c(F)c3)C(=O)N2C1 [PP1330] | – | – | AA (a compound having 20 or more is denoted as AA) | 0.42 | A (a compound having 10 or more and less than 20 is denoted as A) | – | –
6 | CC[C@H](C)[C@@H]1NC(=O)[C@H](C)N(C)C(=O)C[C@@H](C(=O)N(C)C)N(C)C(=O)[C@H](C2CCCC2)N(C)C(=O)C2(CCC2)NC(=O)[C@@H]2CCCN2C(=O)[C@H](CCc2cc(F)c(C(F)(F)F)c(F)c2)NC(=O)CN(C)C(=O)[C@H](Cc2ccc(C(F)(F)F)cc2)N2CCCC[C@@H](C2=O)N(C)C(=O)CN(C)C1=O [PP0581] | – | – | – | – | – | 0.02 | NRAS/KRAS (ratio of KD value with respect to NRAS to KD value with respect to KRAS) [1]: C (A compound having a KD ratio of 0.1 or more and less than 3 is denoted as C); HRAS/KRAS (ratio of KD value with respect to HRAS to KD value with respect to KRAS) [3]: B (a compound having 3 or more and less than 10 is denoted as B)
7 | CCCN1C(=O)CN(C)C(=O)CN(C)C(=O)[C@H]([C@@H](C)CC)NC(=O)[C@H](CC(C)C)N(C)C(=O)C[C@@H](C(=O)N(C)CCOC)N(C)C(=O)[C@H](C2CCCC2)N(C)C(=O)C2(CCCC2)NC(=O)[C@@H]2CCCN2C(=O)[C@H](CCc2ccc(C(F)(F)F)c(Cl)c2)NC(=O)CN(C)C(=O)[C@@H]1Cc1ccc(C(F)(F)F)cc1 [PP0391] ([NMeL]I[Sar][Sar][NPrPhe(4-CF3)][Sar][hPhe(3-Cl-4-CF3)]P[Ac5c][NMeGly(cPent)][NMeD]-{N(Me)CH2CH2OMe}; lactam N-11) | B (a compound having 3 or more and less than 10 is denoted as B) | B (a compound having 3 or more and less than 10 is denoted as B) | – | – | – | 0.092 | –
8 | CC[C@H](C)[C@@H]1NC(=O)[C@H](CC(C)C)N(C)C(=O)C[C@@H](C(=O)N2CCOCC2)N(C)C(=O)[C@H](C2CCCC2)N(C)C(=O)C2(CCCC2)NC(=O)[C@@H]2CCCN2C(=O)[C@H](CCc2ccc(C(F)(F)F)c(Cl)c2)NC(=O)CN(C)C(=O)[C@H](Cc2ccc(C(F)(F)F)cc2)N(CCC(C)C)C(=O)CN(C)C(=O)CN(C)C1=O [PP0126] ([NMeL]I[Sar][Sar][X39][Sar][hPhe(3-Cl-4-CF3)]P[Ac5c][NMeGly(cPent)][NMeD]-Morpholide; lactam N-11) | C (A compound having a KD ratio of 0.1 or more and less than 3 is denoted as C) | C (A compound having a KD ratio of 0.1 or more and less than 3 is denoted as C) | – | – | – | 0.43 | –
9 | CCCN1C(=O)CN(C)C(=O)CN(C)C(=O)[C@H]([C@@H](C)CC)NC(=O)[C@H](CC(C)C)N(C)C(=O)C[C@@H](C(=O)N(C)C)N(C)C(=O)[C@H](C2CCCC2)N(C)C(=O)[C@](C)(CC(C)C)NC(=O)[C@@H]2CCCN2C(=O)[C@H](CCc2cc(F)c(C(F)(F)F)c(F)c2)NC(=O)CN(C)C(=O)[C@@H]1Cc1ccc(C(F)(F)F)cc1 [PP0738] ([NMeL]I[Sar][Sar][NPrPhe(4-CF3)][Sar][hPhe(3,5-F2-4-CF3)]P[αMeL][NMeGly(cPent)][NMeD]-NMe2; lactam N-11) | – | – | – | – | – | 0.64 | NRAS/KRAS (ratio of KD value with respect to NRAS to KD value with respect to KRAS) [1]: B (a compound having 3 or more and less than 10 is denoted as B); HRAS/KRAS (ratio of KD value with respect to HRAS to KD value with respect to KRAS) [3]: B (a compound having 3 or more and less than 10 is denoted as B)
10 | CCCN1C(=O)[C@@H]2CCN2C(=O)[C@H](C)N(C)C(=O)[C@H]([C@@H](C)CC)NC(=O)[C@H](CC(C)C)N(C)C(=O)C[C@@H](C(=O)N2CCC(C)(C)C2)N(C)C(=O)[C@H](C2CCCC2)N(C)C(=O)C2(CCCC2)NC(=O)[C@@H]2CCCN2C(=O)[C@H](CCc2ccc(C(F)(F)F)c(Cl)c2)NC(=O)CN(C)C(=O)[C@@H]1Cc1ccc(C(F)(F)F)cc1 [PP0186] ([NMeL]I[NMeA][Aze][NPrPhe(4-CF3)][Sar][hPhe(3-Cl-4-CF3)]P[Ac5c][NMeGly(cPent)][NMeD]-X24; lactam N-11) | C (A compound having a KD ratio of 0.1 or more and less than 3 is denoted as C) | B (a compound having 3 or more and less than 10 is denoted as B) | – | – | – | 1.7 | –
